Our source for the GI50 and TGI values is PubChem BioAssay (NCI).

Common to all, as to assay: NCI anticancer screen, dose series, 48 h
For test [1], the system named is M14 melanoma.
The test system of test [2] is SK-MEL-2 melanoma.
Test [3] has as its system TK-10 renal.
Test [4] concerns NCI/ADR-RES ovarian.
For test [5], the system named is SNB-19 CNS.
The subject of test [6] is K-562 leukemia.
Test [7] has as its system HCT-116 colon.
The subject of test [8] is HL-60(TB) leukemia.
Test [9] relates to BT-549 breast.
Test [10] has as its system PC-3 prostate.

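Step 1: Grow cells in 96-well plates. Step 2: Expose to compound for 48 hours at 5 concentrations. Step 3: Interpolate endpoints linearly; if unreached, use highest concentration. Here, GI50 denotes the concentration required for 50% inhibition of growth. TGI is the concentration that stops growth completely.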

As for `O=C1c2cc3c(cc2-c2c1c1ccc([N+](=O)[O-])cc1c(=O)n2CCCCl)OCO3`, the GI50 in test [1] is 1.52 µM; in [2] it was over 100 µM; in test [3] it was over 54.3 µM; in test [4] it was 0.0743 µM; in [5], 0.138 µM; in test [7] it was 6.38 µM. Besides, the GI50 in test [8] was 0.328 µM; in [9], 0.308 µM; in [10], 2.4 µM. Also, the TGI in test [1], in test [2], in [3], in test [5], in [6] and in [7] was over 100 µM in each case. Also, the values for the TGI in test [8], in [9] and in test [10] were over 28.8 µM, 24.5 µM and over 100 µM, respectively.
With `O=C1NC(=NCCc2ccccc2Cl)S/C1=C\c1ccc2ncccc2c1`, the GI50 in test [1] is 6.48 µM; in test [2], 5.86 µM; in [3], 3.79 µM; in test [4], 7.73 µM; in test [5], 7.4 µM; in test [6], 1.1 µM. Besides, the GI50 in [7] is 0.936 µM; in test [8], 2.63 µM; in test [9], 4.94 µM; in test [10], 6.26 µM. Further, the TGI is over 25 µM in [1]; 14 µM in [2]; over 20.1 µM in test [3]; over 25 µM in test [4]; over 25 µM in test [5]; over 25 µM in [6]. The TGI in [7] is over 25 µM; in test [8], 10.3 µM; in test [9], over 22 µM; in test [10] it was over 25 µM.
On to `O=Cc1ccc(C(F)(F)F)cc1.[C-]#[O+].[C-]#[O+].[C-]#[O+].[Cr]`, for which the GI50 in test [1] was 12.9 µM; in test [2] it was 23.7 µM; in test [3] it was 25.9 µM; in [4] it was 28.4 µM; in test [5], 26.7 µM; in [6], 26.2 µM. Moreover, the GI50 in test [7] is 16.7 µM; in test [8], 16.1 µM; in test [9] it was 40.1 µM; in [10] it was 31.2 µM. The TGI in test [1] is 37 µM; in test [2], over 100 µM; in test [3] it was over 100 µM; in test [4], over 100 µM; in [5], 89.6 µM; in test [6] it was 97.6 µM. Besides, the TGI in [7] was 38.7 µM; in test [8], 92.6 µM; in test [9], over 100 µM; in test [10] it was over 100 µM.
For `Fc1ccc(Nc2nc(Nc3ccc(-c4nc5ccccc5[nH]4)cc3)nc(N3CCCC3)n2)cc1`, the GI50 is 1.89 µM in [1]; 13 µM in [2]; 17.1 µM in [3]; 2.89 µM in [4]; 3.93 µM in test [5]; 2.31 µM in test [6]. The GI50 in [7] is 1.78 µM; in [8], 2.64 µM; in [9] it was 6.9 µM; in test [10], 2.74 µM. For the same compound, the TGI is 3.95 µM in test [1]; 28 µM in test [2]; 31.3 µM in [3]; 12.1 µM in [4]; 19.1 µM in test [5]; 5.35 µM in test [6]. The TGI turned out to be 3.52 µM in test [7], 6.61 µM in test [8], 20.7 µM in [9] and 8.05 µM in test [10].
With `CSC(=S)N/N=C(\C)c1ccccn1`, the GI50 in test [1] was 0.0997 µM; in [2] it was 0.329 µM; in test [3], 0.527 µM; in test [4], 0.0262 µM; in test [5], 0.77 µM; in test [6], under 0.01 µM. The GI50 is under 0.01 µM in test [7], under 0.0453 µM in test [8], 0.44 µM in test [9] and 0.0452 µM in test [10]. For the same compound, the TGI is 2.33 µM in [1]; 3.75 µM in [2]; 24.2 µM in [3]; 15.7 µM in test [4]; over 72.3 µM in [5]; 23.3 µM in test [6]. For the same compound, the TGI in test [7] is 5.28 µM; in test [8] it was 0.18 µM; in [9], 14.8 µM; in [10], over 82.2 µM.
For `N#C/C(=C/N1CCN(C(=O)c2ccco2)C1=S)C(N)=O`, the GI50 is 16.5 µM in test [1]; 24.4 µM in test [2]; 12.1 µM in test [3]; 25.4 µM in [4]; 36.4 µM in [5]; 9.13 µM in test [6]. In addition, the GI50 in test [7] is 21.2 µM; in test [8], 22 µM; in test [9], 22.5 µM; in test [10] it was 35.6 µM. Besides, the TGI is 43.2 µM in test [1]; 62.3 µM in test [2]; 53.6 µM in [3]; 59.6 µM in test [4]; over 100 µM in [5]; over 100 µM in [6]. In addition, the TGI in [7] was 92.9 µM; in [8], 57.3 µM; in test [9] it was 55.9 µM; in test [10], over 100 µM.
Take `C=C1C(=O)O[C@H]2[C@H]1CC/C(Cn1cc(CCC)nn1)=C\CC[C@@]1(C)O[C@@H]21`: the GI50 in test [1] was 3.99 µM; in test [2] it was 16.3 µM; in [3], 3.86 µM; in test [4] it was 15.2 µM; in [5] it was 18.8 µM; in test [6], 3.96 µM. In addition, the GI50 in [7] is 3.98 µM; in [8], 3.53 µM; in test [9] it was 14.2 µM; in test [10], 14.9 µM. The TGI in [1] was found to be 17.9 µM; in [2] it was 34.5 µM; in test [3], 14.6 µM; in [4] it was 33.4 µM; in [5], 38.1 µM; in test [6], 29.8 µM. Further, the TGI in [7] is 14.4 µM; in [8], 15.3 µM; in test [9], 28.6 µM; in test [10], 29.4 µM.
Turning to `CCOC1NC(=O)Oc2ccccc21` (stereo not given), the TGI in test [1], in [2], in test [3], in test [4], in [5] and in [6] was over 100 µM in each case. In addition, the TGI in test [7], in [8], in test [9] and in [10] was over 100 µM in each case.
With `Oc1ccc2ccccc2c1/C=N\Nc1ccccn1`, the GI50 is 0.441 µM in [1]; 4.85 µM in [3]; 0.281 µM in [4]; 1.33 µM in test [5]; 0.426 µM in test [6]; 0.318 µM in test [7]. Besides, the GI50 in test [8] was 0.267 µM; in [9] it was 3.84 µM; in test [10], 0.933 µM. The TGI was 5.34 µM in [1]; over 49 µM in test [2]; over 100 µM in [3]; 33.3 µM in test [4]; over 100 µM in [5]; over 100 µM in test [6]. In addition, the TGI in [7] was over 39.2 µM; in [8], 0.795 µM; in [9], over 54.9 µM; in test [10], over 100 µM.
As to `COC(=O)c1oc2c(C(=O)/C=C/c3ccc(OC)cc3)c(OCCCN3CCCCC3)ccc2c1C`, the GI50 is 1.61 µM in [1]; 1.87 µM in test [2]; 2.04 µM in test [3]; 2.31 µM in test [4]; 2.1 µM in test [5]; 2.6 µM in test [6]. For the same compound, the GI50 in test [7] was 1.24 µM; in test [8], 0.872 µM; in test [9], 2.89 µM; in [10], 2.39 µM. The TGI in test [1] came to 3.59 µM; in test [2] it was 7.65 µM; in [3] it was 5.71 µM; in [5] it was 8.92 µM; in test [7], 3.02 µM; in test [8], 2.7 µM. For the same compound, the TGI in test [9] is 9.11 µM; in test [10] it was 7.02 µM.
On to `Cc1ccc(/C=C(\C#N)n2nnc3cc(F)c(F)cc32)cc1`, for which the GI50 in [1] is 2.07 µM; in [2] it was 2.26 µM; in test [3], 2.52 µM; in test [4], 2.53 µM; in test [5], 4.58 µM; in test [6] it was 0.445 µM. Further, the GI50 is 1.69 µM in [7], 3.16 µM in test [8], 1.95 µM in [9] and 5.16 µM in [10]. Further, the TGI was 14.9 µM in test [1]; 7.97 µM in test [2]; 11.3 µM in [3]; over 100 µM in [4]; 20.9 µM in test [5]; over 100 µM in [6]. Besides, the TGI in test [7] was 7.79 µM; in test [8], over 100 µM; in test [9], 6.81 µM; in test [10] it was 24.3 µM.
With `CC(C)(C)c1ccc(-c2nnc(SCc3ccc(Cl)cc3)n2-c2cccc(C(F)(F)F)c2)cc1`, the TGI was over 100 µM in test [1]; over 69.5 µM in [2]; over 100 µM in test [3]; over 100 µM in [4]; over 100 µM in [5]; over 100 µM in test [6]. Moreover, the TGI is over 100 µM in test [7], 14.6 µM in [8], over 100 µM in [9] and over 100 µM in test [10].
Consider `CO/N=C1/c2cc(OC)ccc2-c2c(NOC)nc3ccccc3c21`, for which the GI50 in test [1] is over 100 µM; in [2] it was 24.7 µM; in test [3] it was 16 µM; in test [4], 53 µM; in test [5] it was 17.5 µM; in test [6], 65.7 µM. In addition, the GI50 in test [7] is 22.6 µM; in test [8] it was 28.3 µM; in test [9] it was 21.9 µM; in [10] it was 21.3 µM. Also, the TGI in test [1] was over 100 µM; in test [2] it was 88.5 µM; in test [3] it was 39.7 µM; in test [4], over 100 µM; in [5], 53 µM; in [6] it was over 100 µM. Moreover, the TGI in test [7] was 49.2 µM; in test [8], over 100 µM; in test [9] it was 49.6 µM; in test [10] it was 88.2 µM.
Consider `CCOc1ccc2c(c1)/C(=C\C=C\C1CC(C)C3CC(OCC)CCC3N1CC)CC(C)N2CC` (stereo not given), for which the GI50 in test [1] is 1.43 µM; in test [2], 1.66 µM; in test [3], 1.5 µM; in test [4] it was 3.14 µM; in test [5], 0.512 µM; in test [6], 0.685 µM. Besides, the GI50 was 0.789 µM in test [7], 1.82 µM in test [8], 0.906 µM in test [9] and 0.558 µM in [10]. In addition, the TGI in [1] was 3 µM; in test [2], 3.35 µM; in [3], 2.93 µM; in [4], over 100 µM; in test [5], 1.97 µM; in test [6] it was 2.62 µM. Moreover, the TGI in [7] came out at 2.17 µM; in [8] it was 5.71 µM; in test [9], 2.46 µM; in test [10], 2.28 µM.
In the case of `NCCOc1ccccn1`, the TGI in [1], in [2], in test [3], in test [4], in test [5] and in test [6] was over 100 µM throughout. In addition, the TGI in test [7], in test [8], in test [9] and in [10] was over 100 µM in each case.
With `Cc1ccc(/C=C2\CCOC2=O)cc1`, the GI50 in test [1], in test [2], in test [3], in [4], in test [5] and in test [6] was over 100 µM in each case. For the same compound, the GI50 in test [7], in test [8], in [9] and in test [10] was over 100 µM in each case. Besides, the TGI in [1], in test [2], in [3], in test [4], in [5] and in [6] was over 100 µM each time. In addition, the TGI in [7], in test [8], in [9] and in [10] was over 100 µM throughout.
With `CCOC(=O)C(=Cc1ccccc1Br)C(=O)OCC`, the TGI in [1] was 2.48 µM; in test [2], 5.31 µM; in [3], 8.7 µM; in test [4], over 100 µM; in test [5], 6.01 µM; in [6], 13.4 µM. The TGI in test [7] is over 100 µM; in test [8], 4 µM; in [9] it was 7.07 µM; in test [10] it was 14.9 µM.
